Here are results for ten compounds from ChEMBL document CHEMBL1201862, “PubChem BioAssay data set” (2004).

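Grown in 96-well plates, cells were treated for 48 hours with each compound at five concentrations. Insufficient inhibition: endpoint recorded as highest concentration tested. GI50: concentration for 50% inhibition of growth.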 Active and inactive are the calls of the source. No stated cut-off is given here; in the data, active = GI50 up to about 1.1 µM and inactive = higher.

Among the test systems are SK-MEL-28; SNB-75; NCI-H23; UO-31; M14; SF-295; OVCAR-8; NCI/ADR-RES; OVCAR-4; MCF7; MDA-MB-435; LOX IMVI; MDA-N; T47D; SR; NCI-H522; PC-3; HCC 2998; HCT-116; SF-539.
Assay in all cases: DTP human tumour cell line panel, 48 h

As to `CCOC(=O)c1cc(C2CCN(c3ccccc3)C2=O)c(C(=O)/C=C(/C)N)[nH]1` (centres undefined), the GI50 in the test on SK-MEL-28 was 29.1 µM (inactive); in the test on SNB-75, 8.05 µM (inactive); with NCI-H23 it was 92.3 µM (inactive); with UO-31 it was 49.2 µM (inactive); in the test with M14, 65 µM (inactive); with SF-295 it was 15.9 µM (inactive). For the same compound, the GI50 in the test with OVCAR-8 is 28.3 µM (inactive); with NCI/ADR-RES, 44 µM (inactive); with OVCAR-4, 42.5 µM (inactive); in the test with MCF7, 54.6 µM (inactive); in the test on MDA-MB-435 it was > 100 µM (inactive); with LOX IMVI, 28 µM (inactive). Further, the GI50 is 71.4 µM (inactive) with MDA-N; 32.8 µM (inactive) in the test on T47D; > 100 µM (inactive) with SR; 18.5 µM (inactive) in the test on NCI-H522; 39.5 µM (inactive) with PC-3; > 100 µM (inactive) in the test on HCC 2998. Also, the GI50 with HCT-116 was 12.7 µM (inactive).
For the compound `CC1=CC(O)CC(C)(C)C1/C=C/C(C)=C/C=C/C(C)=C/C=C/C=C(C)/C=C/C=C(C)/C=C/C1=C(C)CC(O)CC1(C)C` (centres undefined), the GI50 was 17.5 µM (inactive) in the test with SK-MEL-28; 26.5 µM (inactive) with SNB-75; 24.7 µM (inactive) in the test on NCI-H23; 34 µM (inactive) with UO-31; 13.8 µM (inactive) in the test on M14; 23.9 µM (inactive) with SF-295. Besides, the GI50 in the test with OVCAR-8 was 19.7 µM (inactive); in the test with NCI/ADR-RES it was 24.5 µM (inactive); in the test with OVCAR-4, 28.8 µM (inactive); in the test on MCF7, 27.7 µM (inactive); in the test with MDA-MB-435, 17.5 µM (inactive); with LOX IMVI it was 56.1 µM (inactive). For the same compound, the GI50 was 18.7 µM (inactive) with MDA-N; 20 µM (inactive) in the test on T47D; 15.7 µM (inactive) with SR; 15.2 µM (inactive) in the test with NCI-H522; 23.2 µM (inactive) in the test with PC-3; 83.9 µM (inactive) with HCC 2998. For the same compound, the GI50 with HCT-116 was 15.7 µM (inactive).
On to `CN(Cc1c2ccccc2cc2ccccc12)S(=O)(=O)c1ccc(-c2c3nc(c(-c4ccc(S(=O)(=O)N(C)Cc5c6ccccc6cc6ccccc56)cc4)c4ccc([nH]4)c(-c4ccc(S(=O)(=O)N(C)Cc5c6ccccc6cc6ccccc56)cc4)c4nc(c(-c5ccc(S(=O)(=O)N(C)Cc6c7ccccc7cc7ccccc67)cc5)c5ccc2[nH]5)C=C4)C=C3)cc1`, for which the GI50 with SF-539 was 99.1 µM (inactive); in the test with SK-MEL-28, > 100 µM (inactive); in the test with SNB-75 it was 24.4 µM (inactive); in the test with NCI-H23, > 100 µM (inactive); in the test with UO-31, > 100 µM (inactive); in the test on M14, > 100 µM (inactive). The GI50 in the test on SF-295 was 63.7 µM (inactive); in the test with OVCAR-8, > 100 µM (inactive); in the test on NCI/ADR-RES, > 100 µM (inactive); with OVCAR-4, > 100 µM (inactive); with MCF7, > 100 µM (inactive); in the test on MDA-MB-435, > 100 µM (inactive). The GI50 with LOX IMVI, with MDA-N, in the test with T47D, in the test with SR, in the test on NCI-H522 and with PC-3 was > 100 µM (inactive) each time. Moreover, the GI50 in the test on HCC 2998 and in the test on HCT-116 was > 100 µM (inactive) each time.
`COC(=O)c1ccc(/C=C2\Oc3cc(O)ccc3C2=O)cc1`: the GI50 in the test on SF-539 is > 100 µM (inactive); in the test with SK-MEL-28 it was 72.8 µM (inactive); with SNB-75 it was 39.4 µM (inactive); with NCI-H23, 42.3 µM (inactive); in the test with UO-31, 46.3 µM (inactive); in the test with M14, 83.8 µM (inactive). For the same compound, the GI50 with SF-295 was 36.8 µM (inactive); with OVCAR-8, 61.5 µM (inactive); with NCI/ADR-RES it was > 100 µM (inactive); in the test with OVCAR-4, 62.8 µM (inactive); in the test with MCF7, 38.5 µM (inactive); with MDA-MB-435, > 100 µM (inactive). In addition, the GI50 in the test on MDA-N was 67.3 µM (inactive); in the test on T47D, 54.3 µM (inactive); in the test on SR it was 42.3 µM (inactive); in the test on NCI-H522, 20 µM (inactive); in the test on PC-3, 91.4 µM (inactive); with HCC 2998, > 100 µM (inactive). Also, the GI50 with HCT-116 was 63.5 µM (inactive).
In the case of `COC(=O)C1(Cc2ccc3c(c2)CCC3)Cc2ccc3c(c2C1)CCC3` (centres undefined), the GI50 with SF-539 was 37.9 µM (inactive); with SK-MEL-28, 23.9 µM (inactive); in the test with SNB-75, > 100 µM (inactive); in the test on NCI-H23, 1.48 µM (inactive); with UO-31 it was 18.7 µM (inactive); in the test on SF-295, 20.7 µM (inactive). Besides, the GI50 was 32.1 µM (inactive) in the test with OVCAR-8; 20.6 µM (inactive) with NCI/ADR-RES; 17.2 µM (inactive) in the test with OVCAR-4; 13.2 µM (inactive) in the test on MCF7; 12.7 µM (inactive) with MDA-MB-435; 16.8 µM (inactive) in the test on LOX IMVI. Also, the GI50 is 13.2 µM (inactive) in the test with MDA-N; 1.47 µM (inactive) in the test on T47D; > 10 µM (inactive) in the test on SR; 18.4 µM (inactive) with NCI-H522; 16.9 µM (inactive) with PC-3; 34.5 µM (inactive) in the test on HCC 2998. In addition, the GI50 with HCT-116 was 18.1 µM (inactive).
`COc1cccc2c1OC1c3ccccc3OCC1C2` (centres undefined): the GI50 in the test with SF-539 is > 100 µM (inactive); with SNB-75 it was < 0.01 µM (active); in the test on NCI-H23, > 100 µM (inactive); in the test on UO-31 it was 48 µM (inactive); with M14, > 100 µM (inactive); with SF-295, > 100 µM (inactive). In addition, the GI50 in the test with OVCAR-8 was > 100 µM (inactive); in the test on NCI/ADR-RES, 34.6 µM (inactive); in the test with MCF7, > 100 µM (inactive); with MDA-MB-435, > 100 µM (inactive); in the test with LOX IMVI, > 100 µM (inactive); in the test on MDA-N, > 100 µM (inactive). Moreover, the GI50 in the test on T47D is 44.1 µM (inactive); in the test with SR, > 100 µM (inactive); in the test on NCI-H522, > 10 µM (inactive); in the test with PC-3, 82.6 µM (inactive); in the test with HCC 2998, > 100 µM (inactive); in the test with HCT-116 it was 74.6 µM (inactive).
Take `Clc1cc(Cl)cc(/C=N/C23CC4CC(CC(C4)C2)C3)c1`: the GI50 with SF-539, with SK-MEL-28, in the test on SNB-75, with NCI-H23, in the test on M14 and in the test on SF-295 was > 10 µM (inactive) throughout. The GI50 with OVCAR-8 is > 10 µM (inactive); in the test on NCI/ADR-RES, > 10 µM (inactive); in the test on OVCAR-4 it was > 10 µM (inactive); in the test on MCF7 it was 7.59 µM (inactive); with MDA-MB-435, > 10 µM (inactive); in the test with LOX IMVI, > 10 µM (inactive). The GI50 in the test on MDA-N, with T47D, in the test on SR, in the test on NCI-H522, in the test on PC-3 and in the test on HCC 2998 was > 10 µM (inactive) in each case. In the test with HCT-116, the GI50 is > 10 µM (inactive).
On to `COC1CC(C)(NC(=O)C(F)(F)F)C2OC(c3ccccc3)OCC2O1` (centres undefined), for which the GI50 in the test with SF-539, with SK-MEL-28, in the test with SNB-75, in the test on NCI-H23, with UO-31 and in the test on M14 was > 100 µM (inactive) in each case. Further, the GI50 in the test on SF-295, with OVCAR-8, in the test on NCI/ADR-RES, in the test with OVCAR-4, with MCF7 and in the test with MDA-MB-435 was > 100 µM (inactive) throughout. Also, the GI50 with LOX IMVI, with MDA-N, in the test on T47D, in the test with SR, in the test on NCI-H522 and in the test on PC-3 was > 100 µM (inactive) each time. Also, the GI50 in the test on HCT-116 was > 100 µM (inactive).
With `CCOc1ccccc1NC(=O)C(=O)C(/C(=N/N)C(=O)OC)c1nc2ccc([N+](=O)[O-])cc2nc1O` (centres undefined), the GI50 in the test with SF-539 was > 100 µM (inactive); with SK-MEL-28, > 100 µM (inactive); with SNB-75, 71.4 µM (inactive); in the test with M14, > 100 µM (inactive); in the test with SF-295 it was > 100 µM (inactive); in the test on OVCAR-8, > 100 µM (inactive). Besides, the GI50 in the test with NCI/ADR-RES, with OVCAR-4, in the test on MCF7, in the test on MDA-MB-435, in the test with LOX IMVI and with MDA-N was > 100 µM (inactive) throughout. For the same compound, the GI50 in the test on T47D was > 100 µM (inactive); with SR, > 100 µM (inactive); in the test with NCI-H522 it was 58.3 µM (inactive); in the test on PC-3, > 100 µM (inactive); in the test on HCC 2998, > 100 µM (inactive); with HCT-116, > 100 µM (inactive).
Regarding `O=C1O[C@H]2[C@H](O)[C@@H](OC(=O)c3cc(O)c(O)c4c3[C@@H]3C1=CC(=O)C(O)(O)C3(O)O4)[C@H](OC(=O)c1cc(O)c(O)c(O)c1)O[C@@H]2CO` (some centres undefined) [FUROSIN], the GI50 in the test with SK-MEL-28 is > 100 µM (inactive); in the test on SNB-75, 78.9 µM (inactive); in the test on NCI-H23, > 100 µM (inactive); with UO-31, 57.1 µM (inactive); with M14, 62.2 µM (inactive); in the test with SF-295 it was 71.6 µM (inactive). In addition, the GI50 with OVCAR-8 is 79.1 µM (inactive); with NCI/ADR-RES it was > 100 µM (inactive); with OVCAR-4, > 100 µM (inactive); with MCF7 it was > 100 µM (inactive); with MDA-MB-435 it was 39.5 µM (inactive); in the test on LOX IMVI, 48 µM (inactive). For the same compound, the GI50 in the test with MDA-N was 33.6 µM (inactive); in the test with T47D, > 100 µM (inactive); in the test on SR it was 32.1 µM (inactive); in the test on NCI-H522, 45.4 µM (inactive); in the test with PC-3, > 100 µM (inactive); in the test with HCC 2998, > 100 µM (inactive). Also, the GI50 in the test on HCT-116 was 74.8 µM (inactive).

A word on the GI50: it is the concentration that inhibits growth by half.
